Reference: patent US7227043B2, “2-phenyl-2-substituted-1,3-diketones” (Bayer CropScience Ag, priority 2002, dated 2007)

Experiments:
Format in all cases: in vivo
Venturia inaequalis = test: Venturia test (apple)/protective; conditions: protective, 10 days after inoculation; for % efficacy: 100 g/ha
Protocol: (§1) Venturia Test (Apple)/Protective […] To produce a suitable preparation of active compound, 1 part by weight of active compound is mixed with the stated amounts of solvent and emulsifier, and the concentrate is diluted with water to the desired concentration. To test for protective activity, young plants are sprayed with the preparation of active compound at the stated application rate. After the spray coating has dried on, the plants are inoculated with an aqueous conidia suspension of the apple scab pathogen Venturia inaequalis and then remain in an incubation cabin at about 20° C. and 100% relative atmospheric humidity for 1 day.

[1] = system: larvae of the mustard beetle (Phaedon cochleariae); test: Phaedon larvae test; conditions: 500 ppm, cabbage leaves dipped
Protocol: (§2) Phaedon larvae Test • Solvent: 7 parts by weight of dimethylformamide • Emulsifier: 2 parts by weight of alkylaryl polyglycol ether To produce a suitable preparation of active compound, 1 part by weight of active compound is mixed with the stated amounts of solvent and emulsifier, and the concentrate is diluted with emulsifier-containing water to the desired concentration. Cabbage leaves (Brassica oleracea) are treated by being dipped into the preparation of active compound of the desired concentration and are populated with larvae of the mustard beetle (Phaedon cochleariae) while the leaves are still moist. After the desired period of time, the kill in % is determined. 100% means that all beetle larvae have been killed; 0% means that none of the beetle larvae have been killed.

Echinochloa = test: Pre-emergence test, Echinochloa; conditions: 250 g of ai/ha, after three weeks, 100% = total destruction
Protocol: (§3) • Solvent: 5 parts by weight of acetone • Emulsifier: 1 part by weight of alkylaryl polyglycol ether
(§4) To produce a suitable preparation of active compound, 1 part by weight of active compound is mixed with the stated amount of solvent, the stated amount of emulsifier is added and the concentrate is diluted with water to the desired concentration.
(§5) Seeds of the test plants are sown in normal soil. After about 24 hours, the soil is sprayed with the preparation of active compounds such that the particular amounts of active compound desired are applied per unit area. The concentration of the spray liquor is chosen such that the particular amounts of active compound desired are applied in 1000 l of water/ha.
(§6) After three weeks, the degree of damage to the plants is rated in % damage in comparison to the development of the untreated control.
(§7) The figures denote: • 0%=no effect (like untreated control) • 100%=total destruction

[2] = system: peach aphid (Myzus persicae); test: Myzus test; conditions: 500 ppm, cabbage leaves dipped
Protocol: as §2, with “Myzus” for “Phaedon larvae”, “oleracea) which are heavily infested by the peach aphid (Myzus persicae)” for “oleracea)”, “concentration.” for “concentration and are populated with larvae of the mustard beetle (Phaedon cochleariae) while the leaves are still moist.”, “aphids” for “beetle larvae”

Botrytis cinerea = test: Botrytis test (bean)/protective; conditions: 48 h, protective, 2 days after inoculation, read-out: % efficacy
Protocol: Botrytis Test (Bean)/Protective
• Solvents: 24.5 parts by weight of acetone • 24.5 parts by weight of dimethylacetamide • Emulsifier: 1.0 part by weight of alkylaryl polyglycol ether
To produce a suitable preparation of active compound, 1 part by weight of active compound is mixed with the stated amounts of solvent and emulsifier, and the concentrate is diluted with water to the desired concentration.
To test for protective activity, young plants are sprayed with the preparation of active compound at the stated application rate. After the spray coating has dried on, 2 small pieces of agar colonized by Botrytis cinerea are placed on each leaf. The inoculated plants are placed in a dark chamber at about 20° C. and 100% relative atmospheric humidity.
2 days after the inoculation, the size of the infected areas on the leaves is evaluated. 0% means an efficacy which corresponds to that of the control, whereas an efficacy of 100% means that no infection is observed.

Sugar beet = test: Pre-emergence test, sugar beet; conditions: 250 g of ai/ha, after three weeks, 100% = total destruction
Protocol: as §3, §4, §5, §6, §7

Tetranychus urticae = test: Tetranychus test (OP-resistant/dip treatment); conditions: 100 ppm, bean plants dipped, OP-resistant
Protocol: Tetranychus Test (OP-Resistant/Dip Treatment)
• Solvent: 7 parts by weight of dimethylformamide • Emulsifier: 2 parts by weight of alkylaryl polyglycol ether
To produce a suitable preparation of active compound, 1 part by weight of active compound is mixed with the stated amounts of solvent and emulsifier, and the concentrate is diluted with emulsifier-containing water to the desired concentration.
Bean plants (Phaseolus vulgaris) which are heavily infested by all stages of the greenhouse […] spider mite (Tetranychus urticae) are dipped into a preparation of active compound of the desired concentration.
After the desired period of time, the effect in % is determined. 100% means that all spider mites have been killed; 0% means that none of the spider mites have been killed.

Setaria = test: Pre-emergence test, Setaria; conditions: 250 g of ai/ha, after three weeks, 100% = total destruction
Protocol: as §3, §4, §5, §6, §7

Plasmopara viticola = test: Plasmopara test (grapevine)/protective; conditions: 144 h, protective, 6 days after inoculation, read-out: % efficacy
Protocol: as §1, with “Plasmopara” for “Venturia”, “(Grapevine)/Protective” for “(Apple)/Protective”, “spore” for “conidia”, “Plasmopara viticola” for “the apple scab pathogen Venturia inaequalis”, “day. […] The plants are then moistened and placed in an incubation cabin for 1 day.” for “day.”

[3] = system: caterpillars of the armyworm (Spodoptera frugiperda); test: Spodoptera frugiperda test; conditions: 500 ppm, cabbage leaves dipped
Protocol: as §2, with “Spodoptera frugiperda” for “Phaedon larvae”, “caterpillars” for “larvae”, “armyworm (Spodoptera frugiperda)” for “mustard beetle (Phaedon cochleariae)”, “caterpillars” for “beetle larvae”

Alopecurus = test: Pre-emergence test, Alopecurus; conditions: 250 g of ai/ha, after three weeks, 100% = total destruction
Protocol: as §3, §4, §5, §6, §7

Phytophthora infestans = conditions: 750 g/ha; protective; tomato; 7 days after inoculation
Sphaerotheca fuliginea = test: Sphaerotheca test (cucumber)/protective; conditions: 100 g/ha, protective, 7 days after inoculation
Protocol: Sphaerotheca Test (Cucumber)/Protective […] To produce a suitable preparation of active compound, 1 part by weight of active compound is mixed with the stated amounts of solvent and emulsifier, and the concentrate is diluted with water to the desired concentration. To test for protective activity, young plants are sprayed with the preparation of active compound at the stated application rate. After the spray coating has dried on, the plants are inoculated with an aqueous spore suspension of Sphaerotheca fuliginea The plants are then placed in a greenhouse at about 23° C. and a relative atmospheric humidity of about 70%.

Meloidogyne incognita = test: Meloidogyne test; conditions: 20 ppm, lettuce in sand, 100% = no galls
Protocol: Meloidogyne Test • Solvent: 7 parts by weight of dimethylformamide • Emulsifier: 2 parts by weight of alkylaryl polyglycol ether To produce a suitable preparation of active compound, 1 part by weight of active compound is mixed with the stated amounts of solvent and emulsifier, and the concentrate is diluted with water to the desired concentration. Containers are filled with sand, solution of active compound, Meloidogyne incognita egg/larvae suspension and lettuce seeds. The lettuce seeds germinate and the plants develop. On the roots, galls are formed. After the desired period of time, the nematicidal action is determined in % by the gall formation. 100% means that no galls have been formed; 0% means that the number of galls on the treated plants corresponds to that of the untreated control.

| Structure (SMILES) | Kill rate in % after 7d [1] | % damage, Echinochloa (Echinochloa) | % damage, Sugar beet (Sugar beet) | Kill rate in % after 7d (Tetranychus urticae) | % damage, Setaria (Setaria) | Kill rate in % after 7d [3] | % damage, Alopecurus (Alopecurus) | Efficacy in % (Phytophthora infestans) | also measured |
| --- | --- | --- | --- | --- | --- | --- | --- | --- | --- |
| Cc1ccc(-c2ccc(Cl)cc2)cc1C1(Cl)C(=O)CC2(CCCCC2)C1=O (stereo not drawn) [Ex. I-1-1] | 100% | 100% | 0% | 100% | 90% | – | – | – | Emax at 100 g/ha (Venturia inaequalis; Venturia inaequalis, 240 h, read-out: % efficacy): 100%; Kill rate in % after 6d [2]: 80%; Emax at 100 g/ha (Botrytis cinerea): 96%; Emax at 100 g/ha (Plasmopara viticola): 100% |
| Cc1ccc(-c2ccc(Cl)cc2)cc1C1(Cl)C(=O)CC(C)(C)CC1=O [Ex. I-2-3] | 100% | 80% | 0% | 100% | 90% | 100% | 80% | – | % efficacy (Venturia inaequalis): 86% |
| Cc1ccc(-c2ccc(Cl)cc2)cc1C1(Cl)C(=O)CC2(CCCCCC2)C1=O (stereo not drawn) [Ex. I-1-4] | – | – | – | – | – | – | – | 90% | – |
| CC1(C)CC(=O)C(Cl)(c2cc(-c3ccc(Cl)cc3)ccc2Cl)C(=O)C1 [Ex. I-2-1] | 100% | 90% | 0% | 100% | 80% | 100% | 70% | 89% | % efficacy (Sphaerotheca fuliginea): 97%; % efficacy (Venturia inaequalis): 73%; Effect in % after 14d (nematicidal action by gall formation) (Meloidogyne incognita): 90% |
| Cc1ccc(-c2ccc(Cl)cc2)cc1C1(Cl)C(=O)CC2(CCCC2)CC1=O [Ex. I-2-2] | 100% | 95% | 0% | 98% | 90% | 100% | 90% | – | – |
| Cc1ccc(-c2ccc(Cl)cc2)cc1C1(Cl)C(=O)CC2(CCCC2)C1=O (stereo not drawn) [Ex. I-1-3] | – | – | – | – | – | – | – | 80% | – |
| CC(C)C1CC(=O)C(Cl)(c2cc(Br)ccc2Cl)C(=O)C1 (stereo not drawn) [Ex. I-2-6] | – | – | – | – | – | – | – | – | Effect in % after 14d (nematicidal action by gall formation) (Meloidogyne incognita): 80% |
| O=C1CC2(CCCC2)CC(=O)C1(Cl)c1cc(Br)ccc1Cl [Ex. I-2-4] | – | – | – | 80% | – | – | – | – | – |
| O=C1CC2(CCCC2)CC(=O)C1(Cl)c1cc(-c2ccc(Cl)cc2)ccc1Cl [Ex. I-2-5] | 100% | – | – | 98% | – | 100% | – | – | – |
